What is called pA2 is a measure of antagonist potency on a negative log scale.

Bridge positions count the residues as written; N and C are the ends. Square brackets hold non-standard residues; d marks the D form. Peptide text beside a SMILES is read from it. Pen = CC(C)(S)[C@H](N)C(=O)O; Orn = NCCC[C@H](N)C(=O)O

This is an account of results in patent US20070087326A1, “Method of measuring the biological activity of an urotensin II receptor” (priority 2005, published 2007).

Test [1] has as its target T1, endogeneous human U-II receptors (RMS13 cells) (Homo sapiens, UniProt Q9UKP6).
T1 construct: Cells of RMS13 and 6D9 have endogeneous human U-II receptors; host or cells: RMS13 (human) and 6D9, a sub-clone of RMS13
T1 sequence (Q9UKP6 1-389): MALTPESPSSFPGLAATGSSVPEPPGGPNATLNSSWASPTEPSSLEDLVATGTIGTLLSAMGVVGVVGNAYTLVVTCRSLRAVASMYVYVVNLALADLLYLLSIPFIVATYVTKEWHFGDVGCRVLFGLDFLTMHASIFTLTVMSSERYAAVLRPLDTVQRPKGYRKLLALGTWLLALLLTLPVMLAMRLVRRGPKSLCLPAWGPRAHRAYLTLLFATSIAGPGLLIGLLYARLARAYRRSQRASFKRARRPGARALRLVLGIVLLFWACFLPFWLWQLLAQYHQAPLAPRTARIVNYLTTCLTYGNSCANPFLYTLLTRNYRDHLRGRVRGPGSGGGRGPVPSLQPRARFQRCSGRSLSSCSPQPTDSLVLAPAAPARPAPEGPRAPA
Briefly: CDS (CellKey) electrical impedance assay in RMS13 cells. The test is classed as cell-based. The conditions noted are these: FIG. 3A. How it is done:
(§1) RMS13 was obtained from ATCC (ATCC NO: CRL-2061™, Manassas, Va.). […] The parent of the CHOrUII cells, CHO-K1 was obtained from ATCC (CAT# CRL-9618_CHOK1). The rat UT receptor was recombinantly cloned into CHO-K1 following standard molecular biology cloning techniques. The CHOrUII cells were under G418 selection. […] Angiotensin was purchased from Sigma. Urantide (PUT-3639-P1) was purchased from Peptide International (Louisville, Ky.).
(§2) Cells of RMS13 and 6D9 were cultured in RPMI medium (ATCC 30-2001) containing 10% FBS (Cat. No. SH30070.03, Hyclone, Logan, Utah). CHOrUII cells were grown in DMEMF12 (Gibco #11330-032) medium containing G418 at 1 mg/ml concentration. Cells were plated at 60 or 70K/well in a medium indicated above overnight. The medium was removed and replaced with Hanks balanced salt solution (HBSS, Gibco) containing 20 mM Hepes and 0.1% BSA. Electrical impedance was measured 2-5 minutes prior to compound addition. Compounds were added and measurements continued. The electrical impedance of the cells was measured using CellKey™ (MDS Sciex, Concord, Ontario) according to the protocol of the manufacturer, see for example Ciambrone et al. (2004, J Biomol Screen. 9(6): 467-80). […]
(§3) Cell density-dependence responses to Urotensin II (500 nM) were analyzed to determine the optimum cell density for the CDS assay at 28° C.

Test [2] concerns the target T2, endogeneous human U-II receptors (6D9 cells, sub-clone of RMS13) (Homo sapiens, UniProt Q9UKP6).
T2 construct: Cells of RMS13 and 6D9 have endogeneous human U-II receptors; host or cells: RMS13 (human) and 6D9, a sub-clone of RMS13
T2 sequence (Q9UKP6 1-389): T1 sequence (Q9UKP6 1-389)
Briefly: CDS (CellKey) electrical impedance assay in 6D9 cells. Format: cell-based. To be noted: FIG. 3B. How it is done:
as §1, §2, §3

The target of test [3] is T3, recombinant rat U-II receptors (CHOrUII cells) (Rattus norvegicus, UniProt P49684).
T3 construct: expressed in transfected cells; host or cells: CHO-K1 (ATCC CRL-9618), G418 selection
T3 sequence (P49684 1-386): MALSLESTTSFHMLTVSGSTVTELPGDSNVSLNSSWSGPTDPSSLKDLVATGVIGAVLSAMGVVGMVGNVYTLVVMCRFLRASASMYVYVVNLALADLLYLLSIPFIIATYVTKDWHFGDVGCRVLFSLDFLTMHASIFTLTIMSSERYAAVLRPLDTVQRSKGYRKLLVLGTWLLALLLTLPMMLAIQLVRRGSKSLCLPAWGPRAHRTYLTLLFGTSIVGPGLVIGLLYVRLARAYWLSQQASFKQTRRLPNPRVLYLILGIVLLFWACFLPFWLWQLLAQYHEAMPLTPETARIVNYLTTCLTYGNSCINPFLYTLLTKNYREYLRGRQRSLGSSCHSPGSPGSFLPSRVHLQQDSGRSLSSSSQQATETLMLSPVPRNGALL
Briefly: CDS (CellKey) electrical impedance assay in CHOrUII cells. The conditions noted are these: FIG. 3C. The test is classed as cell-based. How it is done: The CHOrUII cells were under G418 selection. […] Urantide (PUT-3639-P1) was purchased from Peptide International (Louisville, Ky.). Cells of RMS13 and 6D9 were cultured in RPMI medium (ATCC 30-2001) containing 10% FBS (Cat. No. SH30070.03, Hyclone, Logan, Utah). CHOrUII cells were grown in DMEMF12 (Gibco #11330-032) medium containing G418 at 1 mg/ml concentration. Cells were plated at 60 or 70K/well in a medium indicated above overnight. The medium was removed and replaced with Hanks balanced salt solution (HBSS, Gibco) containing 20 mM Hepes and 0.1% BSA. Electrical impedance was measured 2-5 minutes prior to compound addition. Compounds were added and measurements continued. […] In particular, 100 mV voltage was applied to the cells with a sweeping frequency range of 1 kHz to […]. Cell density-dependence responses to Urotensin II (500 nM) were analyzed to determine the optimum cell density for the CDS assay at 28° C.

For test [4], the system named is panel of receptor/ion channels. The test can be described thus: binding to a panel of receptor/ion channels. The conditions noted are these: data not shown.
The next test concerns the target T4, UT receptor (Rattus norvegicus, UniProt P49684).
T4 construct: pure UT receptor antagonist in rat aorta vasoconstriction assays; host or cells: rat aorta tissue
T4 sequence (P49684 1-386): T3 sequence (P49684 1-386)
To be noted: competitive UT receptor antagonist, rat aorta (Patacchini, 2003); cited from earlier work.

A further test concerns the target T5, human UT receptor (Homo sapiens, UniProt Q9UKP6).
T5 construct: host or cells: CHO cells over-expressing the human UT receptor
T5 sequence (Q9UKP6 1-389): T1 sequence (Q9UKP6 1-389)
To be noted: CHO cells over-expressing the human UT receptor (Camarda, 2004); cited from earlier work.

Test [5] has as its target human U-II receptor (endogeneous, on RMS13 and 6D9 cells) (human) (UniProt Q9UKP6). Briefly: cell-based or functional assay.

For `CC(C)[C@H](NC(=O)[C@@H]1CSSC(C)(C)[C@H](NC(=O)[C@@H](N)CC(=O)O)C(=O)N[C@@H](Cc2ccccc2)C(=O)N[C@H](Cc2c[nH]c3ccccc23)C(=O)N[C@@H](CCCN)C(=O)N[C@@H](Cc2ccc(O)cc2)C(=O)N1)C(=O)O` [Urantide] (H-D[Pen]F[dW][Orn]YCV-OH; disulfide 2-7), the “effect on U-II stimulated increase in electrical impedance” value in test [1], in test [2] and in test [3] was “blocked the U-II stimulated increase” each time. Also, the “binding activity to proteins within a panel of receptor/ion channels” value in test [4] is “minimal binding activity”. The pA2 on UT receptor was 8.3. For the same molecule, the agonist activity entry on human UT receptor is “potent U-II agonist”.

In test [5], Urotensin-II (peptide) registered an EC50 of the dose dependent increase in electrical impedance of 6D9 cells (CDS, CellKey) of 0.42 nM and an EC50 of the dose dependent increase in electrical impedance of RMS13 cells (CDS, CellKey) of 0.27 nM.

As to angiotensin, the “effect on U-II stimulated increase in electrical impedance” value in test [1], in test [2] and in test [3] was “did not” each time.
